# Measured values taken from patent publication US20050136043A1, “TGFbeta signaling inhibitors” (Ludwig Institute for Cancer Research, priority 2003, published 2005).
# Like-named read-outs stand apart in the source and are kept apart here.
# What was measured:
# GST-TβR-I [1] = molecular target: T1, GST-TβR-I (Homo sapiens, UniProt P36897, T204D); assay: In vitro kinase assay: phosphorylation of GST-Smad3deltaMH1 by GST-TβR-I; type: biochemical
# T1 construct: the complete cytoplasmic part (amino acid residues 148-503) of constitutively active TβR-I (T204D) FLAG-tagged at the C-terminus; made in house; host or cells: E. coli
# T1 sequence (P36897 148-503 T204D): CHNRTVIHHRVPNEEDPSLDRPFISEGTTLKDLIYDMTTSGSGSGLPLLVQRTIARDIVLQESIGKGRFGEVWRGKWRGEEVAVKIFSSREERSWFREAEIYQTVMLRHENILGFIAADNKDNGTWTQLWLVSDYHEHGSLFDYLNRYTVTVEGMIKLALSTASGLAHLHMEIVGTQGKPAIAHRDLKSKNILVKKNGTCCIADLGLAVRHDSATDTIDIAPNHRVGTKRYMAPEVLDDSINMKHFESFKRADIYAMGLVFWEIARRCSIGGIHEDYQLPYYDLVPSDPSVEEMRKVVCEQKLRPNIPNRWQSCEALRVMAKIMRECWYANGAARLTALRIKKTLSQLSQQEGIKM
# [2] = test system: phosphorylation of endogenous Smad2 by TβR-I in Mv1Lu cells; assay: TGFβ1-dependent phosphorylation of endogenous Smad2 in Mv1Lu cells (pS2 immunoblot); type: cell-based; settings: for Effect of low molecular weight inhibitors on TGFβ1-dependent phosphorylation of Smad2: Mv1Lu cells, TGFβ1 10 ng/ml 30 min, FIG. 3A
# p38 MAP = p38 MAP (Homo sapiens, UniProt Q16539); settings: Calbiochem product data sheets; read-out: IC50 p38 MAP in vitro; cited from earlier work
# p38 MAP, sequence (Q16539 whole entry): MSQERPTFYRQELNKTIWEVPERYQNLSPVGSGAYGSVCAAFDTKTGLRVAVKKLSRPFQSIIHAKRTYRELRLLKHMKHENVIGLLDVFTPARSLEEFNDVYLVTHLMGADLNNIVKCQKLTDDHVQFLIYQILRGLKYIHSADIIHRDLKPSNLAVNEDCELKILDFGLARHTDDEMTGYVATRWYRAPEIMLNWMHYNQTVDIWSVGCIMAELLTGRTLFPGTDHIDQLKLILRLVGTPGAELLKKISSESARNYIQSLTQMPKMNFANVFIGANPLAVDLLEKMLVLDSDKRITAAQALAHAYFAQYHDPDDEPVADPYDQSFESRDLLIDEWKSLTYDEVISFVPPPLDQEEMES
# GST-TβR-I [3] = molecular target: T1, GST-TβR-I; assay: GST-TβR-I autophosphorylation assay; type: biochemical; settings: peptides at 1 and 10 μM, FIG. 4A
# Experimental: In vitro kinase assay: GST-TβRI activity was assayed in vitro using the known TβR-I substrates GST-Smad3deltaMH1, GST-Smad2; GST-Smad1 was used as a control for specificity. The reaction mixture (20 μl) contained 20 mM HEPES (pH 7.4), 10 mM MgCl2, 2 mM MnCl2, 1 mM dithiothreitol (DTT), 5 μM ATP plus 0.5 μCi [γ^32P]ATP (Redivue, Amersham Biosciences), and inhibitors at different concentrations. The reaction was initiated by an addition of 0.02 μg purified GST-TβRI, followed by incubation at 22° C. for 20 min. Reaction was terminated by addition of 5 μl of 5× SDS-sample buffer. Samples were subjected to SDS-PAGE followed by analysis in a FujiX2000 phosphorimager. For all in vitro enzyme assays, the percent inhibition was calculated as 100×(1-Ai/A0), where Ai and A0 are levels of GST-Smad phosphorylation in the presence and absence of inhibitors, respectively. […] Phosphorylated GST-Smad3deltaMH1 and autophosphorylated GST-TβRI were analyzed by tryptic phosphopeptide mapping, as described previously.
# A GST-TβR-I autophosphorylation assay was performed in the absence or presence of antp-Sm2S (SEQ ID NO:3), antp-Sm2A (SEQ ID NO:2) and antp-Sm5A (SEQ ID NO:4) peptides at concentrations of 1 and 10 μM, as indicated (FIG. 4A).
# [4] = molecular target: T2, constitutively active TβR-I (Homo sapiens, UniProt P36897, T204D); assay: In vitro kinase assay with immunoprecipitated constitutively active TβR-I expressed in Mv1Lu cells; type: biochemical; settings: immunoprecipitated from Mv1Lu cells, data not shown
# T2 construct: made in house; host or cells: Mv1Lu cells (expressed, immunoprecipitated)
# T2 sequence (P36897 34-503 T204D): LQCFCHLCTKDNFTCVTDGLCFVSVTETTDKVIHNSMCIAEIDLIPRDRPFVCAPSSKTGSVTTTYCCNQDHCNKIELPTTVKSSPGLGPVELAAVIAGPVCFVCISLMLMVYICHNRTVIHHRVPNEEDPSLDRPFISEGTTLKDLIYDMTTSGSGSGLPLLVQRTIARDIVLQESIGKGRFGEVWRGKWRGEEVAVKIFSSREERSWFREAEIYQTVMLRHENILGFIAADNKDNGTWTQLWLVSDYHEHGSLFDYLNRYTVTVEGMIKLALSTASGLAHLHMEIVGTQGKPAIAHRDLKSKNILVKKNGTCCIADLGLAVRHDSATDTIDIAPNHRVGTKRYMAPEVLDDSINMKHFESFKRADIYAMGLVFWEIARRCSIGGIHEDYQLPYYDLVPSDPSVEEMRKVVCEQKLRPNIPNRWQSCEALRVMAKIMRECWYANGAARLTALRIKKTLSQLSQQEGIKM
# Mv1Lu cells = assay: Growth inhibition assay, [3H]thymidine incorporation; type: cell-based; settings: peptide 50 μM, TGFβ1 0.1 ng/ml, 24 hours, FIG. 7
# Experimental: Growth inhibition assay: Growth inhibition assay with MV1Lu cells, using evaluation of [^3H]thymidine incorporation, was performed as described earlier. Briefly, cells were preincubated with peptides for 30 min, and then treated or not with TGFβ1 (0.1 ng/ml) for 24 h. During the last two hours of incubation, [^3H]thymidine was added. Radioactivity incorporated into DNA was measured in a scintillation counter. No cytotoxic effects of peptides were observed after 24 h incubation with cells, as evaluated by observation of cells in a microscope.
# To explore whether the antp-Sm2A (SEQ ID NO:2) peptide can interfere with the TGFβ-dependent effects on cells, we performed an assay with Mv1Lu cells, which are widely used in studies of TGFβ effects and are potently growth-inhibited by TGFβ [29]. […] [^3H]thymidine was added to cells for last two hours of incubation, and radioactivity incorporated into DNA was measured.
# [5] = in vitro kinase assay, 5 μM ATP, read-out: IC50 GST-TβRI in vitro
compound,measurement,setting,value
CC1CNCCN1S(=O)(=O)c1cccc2cnccc12.Cl (stereo not shown) [H7],IC50,GST-TβR-I [1]; [5],200 µM
same,Effect on the kinase activity of GST-TβR-I (phosphorylation of GST-Smad3deltaMH1),"GST-TβR-I [1]; in vitro kinase assay, FIG. 2A",inhibited
same,Effect of low molecular weight inhibitors on TGFβ1-dependent phosphorylation of Smad2,[2],weaker than that of SB203580
COc1cccc(-c2cc(=O)c3ccccc3o2)c1N [PD98058],Effect on the kinase activity of GST-TβR-I (phosphorylation of GST-Smad3deltaMH1),"GST-TβR-I [1]; in vitro kinase assay, FIG. 2A",did not have an effect
Oc1ccc(-c2nc(-c3ccncc3)c(-c3ccc(F)cc3)[nH]2)cc1 [SB202190],IC50,GST-TβR-I [1]; read-out: IC50 for inhibition of GST-TβR-I,0.02 µM
CCc1[nH]c(-c2ccc(OC)cc2)nc1-c1ccncc1 [SB202474],IC50,GST-TβR-I [1]; [5],30 µM
C[S+]([O-])c1ccc(-c2nc(-c3ccc(F)cc3)c(-c3ccncc3)[nH]2)cc1 (stereo not shown) [SB203580],Effect of low molecular weight inhibitors on TGFβ1-dependent phosphorylation of Smad2,[2],significantly reduced
same,inhibition at 25 µM,"[2]; Mv1Lu, 0.5 h, read-out: Inhibition of TGFβ1-induced Smad2 phosphorylation",57%
Cc1nc(-c2ccncc2)c(-c2ccccc2)o1 [SC68376],IC50,GST-TβR-I [1]; [5],5 µM
same,IC50,p38 MAP,2 to 5 µM
CC[C@H](CO)Nc1nc(NCc2ccccc2)c2ncn(C(C)C)c2n1 [roscovitine],Effect on the kinase activity of GST-TβR-I (phosphorylation of GST-Smad3deltaMH1),GST-TβR-I [1],did not have an effect
CN[C@@H]1C[C@H]2O[C@@](C)([C@@H]1OC)n1c3ccccc3c3c4c(c5c6ccccc6n2c5c31)C(=O)NC4 [staurosporine],Effect on the kinase activity of GST-TβR-I (phosphorylation of GST-Smad3deltaMH1),GST-TβR-I [1],did not have an effect
"RQIKIWFQNRRMKWKKTQMGSPLNPISAVA (listed as Homo sapiens) [antp-Sm5A, penetratin fused to Smad5 C-terminus with serines replaced by alanine; specificity control, reference compound]",Effect of peptides on TGFβ1-dependent phosphorylation of endogenous Smad2,"[2]; Mv1Lu cells pretreated with peptide, 15 min TGFβ1, FIG. 6A",did not have any effect
same,Inhibition of autophosphorylation of GST-TβR-I,GST-TβR-I [3],No or only weak inhibition
same,Inhibition of autophosphorylation of TβR-I,[4],only a marginal effect
same,Reversion of the inhibitory action of TGFβ1 on DNA synthesis,Mv1Lu cells,did not have any effect
